# Test results reported in patent US9090605B2, “Substituted 5-,6- and 7-membered heterocycles, medicaments containing such compounds, and their use” (Vitae Pharmaceuticals, Inc., priority 2010, dated 2015).
# Molecular target: 11β-HSD1 (Homo sapiens, UniProt P28845)
# Experiment: In vitro inhibition of 11β-HSD1, HTRF detection of cortisol generated by human liver microsomes (biological test example 1)
# Assay type: biochemical
# Design: detecting cortisol generated from cortisterone by human liver microsomes; from tissue; host or cells: human liver microsomes
# Conditions: 1 hour at 37° C., cortisone 80 nM, NADPH 200 μM, read-out: IC50, inhibitory activity on 11β-HSD 1
# Method: Briefly, compounds were incubated for 1 hour at 37° C. in Tris buffer (20 mM tris, 5 mM EDTA, pH 6.0) containing NADPH (200 μM) and cortisone (80 nM). Cortisol generated in the reaction was then detected with a competitive immunoassay, involving two HTRF conjugates: cortisol linked to XL665 and anti-cortisol antibody labeled with Europium cryptate. The incubation period for detection reaction was typically 2 hours. The amount of cortisol was determined by reading the time-resolved fluorescence of the wells (Ex 320/75 nm; Em 615/8.5 nm and 665/7.5 nm). The ratio of the two emission signals was then calculated (Em665*10000/Em615). […] Each assay also contained a calibration curve with cortisol to transform the fluorescent data into cortisol concentrations. Percent inhibition (% CTL) of each compound was determined relative to the carbenoxolone signal and IC50 curves were generated.
# 11β-HSD1, sequence (P28845 whole entry): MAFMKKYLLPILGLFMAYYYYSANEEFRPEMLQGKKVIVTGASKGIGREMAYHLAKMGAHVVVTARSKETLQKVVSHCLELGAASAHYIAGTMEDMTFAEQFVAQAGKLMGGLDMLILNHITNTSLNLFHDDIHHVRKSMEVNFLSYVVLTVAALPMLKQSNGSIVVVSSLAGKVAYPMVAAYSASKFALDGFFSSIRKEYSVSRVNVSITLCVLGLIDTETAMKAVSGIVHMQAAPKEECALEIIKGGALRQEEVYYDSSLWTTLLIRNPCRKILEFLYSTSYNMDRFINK
row,SMILES,IC50 [nM]
1,"C[C@@H](c1ccc(-c2ccc(C3(C(N)=O)CC3)cn2)cc1)N1CC[C@](CC(C)(C)O)(c2ccccc2)OC1=O [Example 19, 1-[6-(4-{(S)-1-[(S)-6-(2-Hydroxy-2-methyl-propyl)-2-oxo-6-phenyl-[1,3]oxazinan-3-yl]-ethyl}-phenyl)-pyridin-3-yl]-cyclopropanecarboxylic acid amide]",35
2,"C[C@@H](c1ccc(-c2ccc(C3(C#N)CC3)cn2)cc1)N1CC[C@](CC(C)(C)O)(c2ccccc2)OC1=O [Example 17, 1-[6-(4-{(S)-1-[(S)-6-(2-Hydroxy-2-methyl-propyl)-2-oxo-6-phenyl-[1,3]oxazinan-3-yl]-ethyl}-phenyl)-pyridin-3-yl]-cyclopropanecarbonitrile]",81
3,"C[C@@H](c1ccc(-c2cccc(C3(C(=O)N(C)C)CC3)n2)cc1)N1CC[C@](CC(C)(C)O)(c2ccccc2)OC1=O [Example 24, 1-[6-(4-{(S)-1-[(S)-6-(2-Hydroxy-2-methyl-propyl)-2-oxo-6-phenyl-[1,3]oxazinan-3-yl]-ethyl}-phenyl)-pyridin-2-yl]-cyclopropanecarboxylic acid dimethylamide]",53
4,"C[C@@H](c1ccc(-c2cnn(C3CCOCC3)c2)cc1)N1CC[C@](CC(C)(C)O)(c2ccccc2)OC1=O [Example 14, (S)-6-(2-Hydroxy-2-methyl-propyl)-6-phenyl-3-((S)-1-{4-[1-(tetrahydro-pyran-4-yl)-1H-pyrazol-4-yl]-phenyl}-ethyl)-[1,3]oxazinan-2-one]",48
5,"C[C@@H](c1ccc(-c2ccc(C3(O)COC3)cc2)cc1)N1CC[C@](CC(C)(C)O)(c2ccccc2)OC1=O [Example 1, (S)-6-(2-Hydroxy-2-methyl-propyl)-3-{(S)-1-[4′-(3-hydroxy-oxetan-3-yl)-biphenyl-4-yl]-ethyl}-6-phenyl-[1,3]oxazinan-2-one]",56
6,"CNC(=O)C1(c2cccc(-c3ccc([C@H](C)N4CC[C@](CC(C)(C)O)(c5ccccc5)OC4=O)cc3)n2)CC1 [Example 23, 1-[6-(4-{(S)-1-[(S)-6-(2-Hydroxy-2-methyl-propyl)-2-oxo-6-phenyl-[1,3]oxazinan-3-yl]-ethyl}-phenyl)-pyridin-2-yl]-cyclopropanecarboxylic acid methylamide]",115
7,"C[C@@H](c1ccc(-c2ccn([C@H]3CCOC3)c(=O)c2)cc1)N1CC[C@](CC(C)(C)O)(c2ccccc2)OC1=O [Example 13, (S)-6-(2-Hydroxy-2-methyl-propyl)-3-((S)-1-{4-[2-oxo-1-((S)-tetrahydro-furan-3-yl)-1,2-dihydro-pyridin-4-yl]-phenyl}-ethyl)-6-phenyl-[1,3]oxazinan-2-one]",46

# Now from value to compound:
row,IC50 [nM],SMILES
1,186,"C[C@@H](c1ccc(-c2ccnc(C3(C(=O)O)CC3)c2)cc1)N1CC[C@](CC(C)(C)O)(c2ccccc2)OC1=O [Example 45, 1-[4-(4-{(S)-1-[(S)-6-(2-Hydroxy-2-methyl-propyl)-2-oxo-6-phenyl-[1,3]oxazinan-3-yl]-ethyl}-phenyl)-pyridin-2-yl]-cyclopropanecarboxylic acid]"
2,47,"C[C@@H](c1ccc(-c2ccnc(C3(C(=O)N(C)C)CC3)c2)cc1)N1CC[C@](CC(C)(C)O)(c2ccccc2)OC1=O [Example 48, 1-[4-(4-{(S)-1-[(S)-6-(2-Hydroxy-2-methyl-propyl)-2-oxo-6-phenyl-[1,3]oxazinan-3-yl]-ethyl}-phenyl)-pyridin-2-yl]-cyclopropanecarboxylic acid dimethylamide]"
3,65,"CNC(=O)C1(c2cc(-c3ccc([C@H](C)N4CC[C@](CC(C)(C)O)(c5ccccc5)OC4=O)cc3)ccn2)CC1 [Example 47, 1-[4-(4-{(S)-1-[(S)-6-(2-Hydroxy-2-methyl-propyl)-2-oxo-6-phenyl-[1,3]oxazinan-3-yl]-ethyl}-phenyl)-pyridin-2-yl]-cyclopropanecarboxylic acid methylamide]"
